Assay results taken from patent publication US20070270337A1, “Pharmaceutical Compositions for Preventing or Treating Th1-Mediated Immune Diseases” (Daiichi Asubio Pharma Co., Ltd., priority 2003, published 2007).

Assays:
immature dendritic cells = assay: cGMP producing activity in immature dendritic cells; assay type: cell-based, human; conditions: 10^-12 to 10^-6 M, 15 minutes
Procedure: (§1) For experiments, the leukocyte layer (buffy coats) of peripheral blood from healthy volunteers (provided by Kyoto Red Cross Blood Center, Japan) was used. After the peripheral blood monocyte fraction was separated by density gradient centrifugation using Ficoll-Paque, the fraction was applied to a magnetic bead column using MACS CD14 or cultured in cell culture flasks at 37° C. for 1 hour to select the adhered cells, thereby separating monocytes. Immature dendritic cells were obtained by culturing the monocytes (2×10^5 cells/ml) for 7 days at 37° C. in the presence of 10% fetal bovine serum, 50 ng/mL human GM-CSF and 20 ng/mL human IL-4.
(§2) After the cells (1×10^5 cells/sample) were incubated in 500 μL of 10 mM HEPES, 0.5 mM 3-isobutyl-1-methylxanthine and 1 μM phospholamidon at 37° C. for 10 minutes, ANP or CNP was added to a final concentration of 10^−12 to 10^−6 M and incubation was continued for an additional 15 minutes. After the cells were washed and lysed, the intracellular cGMP concentration was measured by the ELISA method.

human monocytes = assay: cGMP producing activity in monocytes; assay type: cell-based; conditions: 10^-12 to 10^-6 M, 15 minutes
Procedure: as §1, §2

[1] = test system: naive CD4+ T cells cultured with dendritic cells; assay: T cell proliferation induced by activated dendritic cells ([3H]-thymidine uptake); assay type: cell-based, human
Procedure: as §1
Naive T cells (naive CD4^+ T cells) were isolated from the monocyte fraction of umbilical cord blood using magnetic beads for MACS CD4^+ T cell isolation. Dendritic cells were activated by being cultured for 24 hours with lipopolysaccharide (LPS, 1 μg/mL) in the presence or absence of ANP (10^−7 M). The cells were washed and irradiated (30 Gy) to eliminate their proliferation ability, followed by culturing together with the naive T cells (1×10^5 cells/well) for 6 days. The T cells were evaluated for their proliferation ability by 8 hour uptake of [methyl-^3H]-thymidine (0.5 μCi/well).

dendritic cells = assay: Cytokine production from dendritic cells (ELISA); assay type: cell-based, human; conditions: for IL-10 production from dendritic cells / IL-12 production from dendritic cells / TNFα production from dendritic cells: LPS (1 μg/mL) stimulated, 24 hours, ANP 10^-8 to 10^-6 M, CNP 10^-6 M
Procedure: as §1
Dendritic cells were incubated for 24 hours with LPS (1 μg/mL) in the presence or absence of ANP (10^−8 M to 10^−6 M) or CNP (10^−6 M), and the levels of IL-12, IL-10 and TNFα in each culture supernatant were measured by the ELISA method.

[2] = test system: naive T cells co-cultured with dendritic cells; assay: Intracellular cytokine expression in naive T cells (dendritic cell-driven Th1/Th2 polarization, flow cytometry); assay type: cell-based, human; conditions: dendritic cells pretreated with LPS (1 μg/mL) + ANP (10^-7 M) versus LPS alone; Sample #1 and #2
Procedure: as §1
Dendritic cells were activated by being pre-incubated for 24 hours with LPS (1 μg/mL) in the presence or absence of ANP (10^−7 M) and then irradiated (30 Gy) to eliminate their proliferation ability. These dendritic cells (1×10^5 cells/well) and naive T cells separated from cord blood (1×10^6 cells/well) were co-cultured for 6 days. After the T cells were grown in the presence of IL-2 (50 U/mL) for an additional 8 days, the T cells were collected and stimulated for 4 hours with 50 ng/mL phorbol ester (PMA) and 500 ng/mL ionomycin. Two hours before completion of the incubation, Brefeldin A (10 μg/mL) was added. […] IFN-γ positive cells were determined as Th1-type cells, while IL-4 positive cells were determined as Th2-type cells.

Row | Compound | intracellular cGMP levels (immature dendritic cells) | intracellular cGMP levels (human monocytes) | T cell proliferation induced by LPS-treated dendritic cells ([1]; ANP (10^-7 M) added simultaneously with LPS (1 μg/mL)) | proliferation of naive T cells ([1]; dendritic cells treated with ANP (10^-7 M) alone, without LPS) | IL-10 production from dendritic cells (dendritic cells) | IL-12 production from dendritic cells (dendritic cells) | TNFα production from dendritic cells (dendritic cells) | IL-12, TNF-α and IL-10 production from dendritic cells (dendritic cells; LPS-unstimulated dendritic cells, ANP alone) | IFN-γ-producing cells (Th1-type) [2] | IL-4-producing cells (Th2-type) [2]
1 | CC[C@H](C)[C@@H]1NC(=O)[C@H](CCCNC(=N)N)NC(=O)[C@H](CC(=O)O)NC(=O)[C@H](CCSC)NC(=O)[C@H](CCCNC(=N)N)NC(=O)CNC(=O)CNC(=O)[C@H](Cc2ccccc2)NC(=O)[C@@H](NC(=O)[C@H](CO)NC(=O)[C@H](CO)NC(=O)[C@H](CCCNC(=N)N)NC(=O)[C@H](CCCNC(=N)N)NC(=O)[C@H](CC(C)C)NC(=O)[C@@H](N)CO)CSSC[C@@H](C(=O)N[C@@H](CC(N)=O)C(=O)N[C@@H](CO)C(=O)N[C@@H](Cc2ccccc2)C(=O)N[C@@H](CCCNC(=N)N)C(=O)N[C@@H](Cc2ccc(O)cc2)C(=O)O)NC(=O)CNC(=O)[C@H](CC(C)C)NC(=O)CNC(=O)[C@H](CO)NC(=O)[C@H](CCC(N)=O)NC(=O)[C@H](C)NC(=O)CNC1=O [ANP, atrial natriuretic peptide] | increase intracellular cGMP levels in dendritic cells in a concentration-dependent manner from a concentration as low as 10^−12 M | little increase in cGMP levels at all concentrations | almost completely inhibited | no effect on proliferation of naive T cells | enhance IL-10 production | decrease both IL-12 and TNFα levels in a concentration-dependent manner | decrease both IL-12 and TNFα levels in a concentration-dependent manner | no effect on these cytokine productions | decrease in IFN-γ-producing cells | increase in IL-4-producing cells
2 | C-type natriuretic peptide [CNP, reference compound] | no effect on intracellular cGMP levels | no effect on intracellular cGMP levels |  |  | no effect on cytokine expression | no effect on cytokine expression | no effect on cytokine expression |  |  | 
